# Measurements published in ChEMBL document CHEMBL1122626, “(+/-)-4-Aryl-4,5-dihydro-3H-1,3-benzodiazepines. 3. 2-Phenyl and 2-amino analogues as potential antihypertensive agents” (1984).
# Key:
# Rattus norvegicus [1] = assay: Antihypertensive activity was evaluated in spontaneously hypertensive rat model with base line systolic pressure of 189 mmHg by the indirect tail-cuff method at an oral screening dose of 50 mg/kg.; format: functional, Blood
# Rattus norvegicus [2] = assay: Antihypertensive activity was evaluated in spontaneously hypertensive rat model with base line systolic pressure of 174 mmHg by the indirect tail-cuff method at an oral screening dose of 50 mg/Kg; format: functional, Blood
SMILES,BP (Rattus norvegicus [1]) [mmHg],BP (Rattus norvegicus [2]) [mmHg]
CN1C(c2ccccc2)=Nc2ccccc2CC1c1ccccc1.Cl (configuration not stated),-56,–
N=C(N)NCCN1CCCCCCC1 [GUANETHIDINE],–,-20
